Here are results for 3 compounds from patent publication US11612661B2 (priority 2019, dated 2023).

The subject of series [1] is chronic constriction injury (CCI) model. Details: species or system Sprague Dawley rats. Particulars: rat, in vivo.
A further series concerns the target α7 nAChR (Homo sapiens, UniProt P36544). Particulars: 10 μM; read-out: Partial inhibition of the α7 nAChR.
Another series concerns the target rat α9α10 nAChR (Rattus norvegicus, UniProt P43144+Q9JLB5). Briefly: cell-based. Format: cell-based. Particulars: α9α10 nAChR IC50 (nM) Rat.
Series [2] relates to 88 receptors, transporters, enzymes and kinases. The note with it: 10 μM.
The target of a further series is human α9α10 nAChR (Homo sapiens, UniProt Q9GZZ6+Q9UGM1). Nature of the series: cell-based. Format: cell-based.

What is called inhibition is the change of the read-out against control, counted positive when it falls. Broadly, the IC50 is the concentration at which inhibition is half-maximal. Higher therefore signals weaker potency in that assay.

Bridge positions count the residues as written; N and C are the ends. Square brackets hold non-standard residues; d marks the D form. Triazole bridges read from a SMILES are 1,4-linked. Peptide text beside a SMILES is read from it. Tyr(3-I) = N[C@@H](Cc1ccc(O)c(I)c1)C(=O)O; Orn(N3) = [N-]=[N+]=NCCC[C@H](N)C(=O)O; Cit = NC(=O)NCCC[C@H](N)C(=O)O; Pra = C#CC[C@H](N)C(=O)O

Sequence of human α9α10 nAChR (Q9UGM1 26-479 limits assumed): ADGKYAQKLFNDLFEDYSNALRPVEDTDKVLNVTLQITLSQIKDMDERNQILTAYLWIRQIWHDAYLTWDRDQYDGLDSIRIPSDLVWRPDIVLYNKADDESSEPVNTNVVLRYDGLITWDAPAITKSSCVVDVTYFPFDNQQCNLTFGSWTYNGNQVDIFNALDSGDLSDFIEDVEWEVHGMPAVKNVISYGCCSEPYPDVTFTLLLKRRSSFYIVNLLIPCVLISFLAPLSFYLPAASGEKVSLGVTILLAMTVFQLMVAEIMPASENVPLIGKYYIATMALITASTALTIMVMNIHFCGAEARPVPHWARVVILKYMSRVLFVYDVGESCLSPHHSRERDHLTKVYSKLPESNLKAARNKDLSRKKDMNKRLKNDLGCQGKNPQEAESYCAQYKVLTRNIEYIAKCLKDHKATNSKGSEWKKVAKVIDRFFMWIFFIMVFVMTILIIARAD
Sequence of human α9α10 nAChR (Q9GZZ6 25-450 limits assumed): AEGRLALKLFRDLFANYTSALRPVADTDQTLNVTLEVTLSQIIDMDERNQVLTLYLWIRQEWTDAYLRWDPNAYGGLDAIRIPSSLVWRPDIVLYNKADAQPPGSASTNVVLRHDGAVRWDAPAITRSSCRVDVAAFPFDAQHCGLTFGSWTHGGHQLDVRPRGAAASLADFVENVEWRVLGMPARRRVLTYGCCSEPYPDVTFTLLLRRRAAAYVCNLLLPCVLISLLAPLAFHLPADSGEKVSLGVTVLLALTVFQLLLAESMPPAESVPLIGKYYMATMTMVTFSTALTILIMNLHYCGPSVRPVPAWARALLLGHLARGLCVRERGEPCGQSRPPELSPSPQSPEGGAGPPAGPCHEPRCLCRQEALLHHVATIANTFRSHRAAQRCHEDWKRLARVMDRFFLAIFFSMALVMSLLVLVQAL
Sequence of rat α9α10 nAChR (P43144 26-479 limits assumed): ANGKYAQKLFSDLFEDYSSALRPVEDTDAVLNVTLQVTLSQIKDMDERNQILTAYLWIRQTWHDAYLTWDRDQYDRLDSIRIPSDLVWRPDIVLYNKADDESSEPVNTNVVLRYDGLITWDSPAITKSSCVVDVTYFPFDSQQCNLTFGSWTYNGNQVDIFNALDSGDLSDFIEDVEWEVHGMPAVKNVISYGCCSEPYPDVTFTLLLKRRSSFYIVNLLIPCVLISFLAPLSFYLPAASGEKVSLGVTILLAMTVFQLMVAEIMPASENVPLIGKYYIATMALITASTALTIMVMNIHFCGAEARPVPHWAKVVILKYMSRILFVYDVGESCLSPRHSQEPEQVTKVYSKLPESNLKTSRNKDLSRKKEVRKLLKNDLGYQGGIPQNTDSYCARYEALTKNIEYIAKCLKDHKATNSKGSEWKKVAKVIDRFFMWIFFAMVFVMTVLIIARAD
Sequence of rat α9α10 nAChR (Q9JLB5 25-447 limits assumed): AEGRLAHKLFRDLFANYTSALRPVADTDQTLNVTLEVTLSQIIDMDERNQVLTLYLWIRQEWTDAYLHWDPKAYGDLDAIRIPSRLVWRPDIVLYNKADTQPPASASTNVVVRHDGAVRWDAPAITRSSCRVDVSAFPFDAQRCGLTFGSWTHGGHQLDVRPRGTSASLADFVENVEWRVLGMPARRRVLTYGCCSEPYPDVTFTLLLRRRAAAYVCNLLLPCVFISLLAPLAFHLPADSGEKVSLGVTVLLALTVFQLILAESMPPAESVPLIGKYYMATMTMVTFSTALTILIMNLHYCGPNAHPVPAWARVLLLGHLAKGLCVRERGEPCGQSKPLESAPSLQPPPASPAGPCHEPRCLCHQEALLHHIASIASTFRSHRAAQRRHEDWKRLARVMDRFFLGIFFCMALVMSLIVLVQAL
Sequence of α7 nAChR (P36544 23-502 limits assumed): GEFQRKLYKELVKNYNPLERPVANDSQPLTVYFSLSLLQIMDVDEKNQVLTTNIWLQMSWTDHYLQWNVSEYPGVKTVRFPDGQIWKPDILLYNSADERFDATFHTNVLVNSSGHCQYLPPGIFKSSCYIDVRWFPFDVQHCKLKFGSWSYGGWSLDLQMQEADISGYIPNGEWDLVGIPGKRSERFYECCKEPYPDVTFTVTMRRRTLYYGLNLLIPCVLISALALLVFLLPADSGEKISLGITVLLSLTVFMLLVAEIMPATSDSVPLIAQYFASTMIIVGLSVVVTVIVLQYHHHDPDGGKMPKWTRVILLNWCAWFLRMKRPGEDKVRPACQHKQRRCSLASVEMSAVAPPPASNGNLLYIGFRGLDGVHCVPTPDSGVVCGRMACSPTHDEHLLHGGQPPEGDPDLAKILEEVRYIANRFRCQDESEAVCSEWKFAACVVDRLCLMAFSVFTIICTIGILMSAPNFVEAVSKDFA

`C[C@@H](O)[C@@H]1NC(=O)[C@@H]2Cc3cn(nn3)CCC[C@@H](C(=O)N[C@@H](Cc3ccc(O)cc3)C(N)=O)NC(=O)[C@H](CCC(N)=O)NC(=O)[C@H](Cc3ccc(O)c(I)c3)NC(=O)[C@H](CCCNC(N)=O)NC(=O)[C@H](CSSC[C@H](NC(=O)CN)C(=O)N2)NC(=O)[C@H](CCCNC(=N)N)NC(=O)[C@@H]2CCCN2C(=O)[C@H](CC(=O)O)NC1=O` [Ib′, L-tyrosinamide, glycyl-L-cysteinyl-L-alanyl-L-threonyl-L-α-aspartyl-L-prolyl-L-arginyl-L-cysteinyl-N5-(aminocarbonyl)-L-ornithyl-L-3-iodotyrosyl-L-glutaminyl-L-norvalyl-cyclic (2→8)-disulfide-cyclic 3^3,12^5-(1H-1,2,3-triazole-4,1-diyl)] (H-GC[Pra]TDPRC[Cit][Tyr(3-I)]Q[Orn(N3)]Y-NH2; disulfide 2-8; triazole 3-12): the “Paw withdrawal thresholds relative to vehicle-treated control animals” value in series [1] was “statistically significant improvement in paw withdrawal thresholds”. Besides, the inhibition at 10 µM at α7 nAChR is 56%. Also, the results for the IC50 against rat α9α10 nAChR and against human α9α10 nAChR were 2.3 ± 0.5 nM and 48 ± 9 nM, respectively. Moreover, the “Off-target effects in panel of 88 receptors, transporters, enzymes and kinases” value in series [2] is recorded as “no off-target effects”.

As to `C[C@@H](O)[C@@H]1NC(=O)[C@@H]2CCC(=O)NCCCC[C@@H](C(=O)N[C@@H](Cc3ccc(O)cc3)C(N)=O)NC(=O)[C@H](CCC(N)=O)NC(=O)[C@H](Cc3ccc(O)c(I)c3)NC(=O)[C@H](CCCNC(N)=O)NC(=O)[C@H](CSSC[C@H](NC(=O)CN)C(=O)N2)NC(=O)[C@H](CCCNC(=N)N)NC(=O)[C@@H]2CCCN2C(=O)[C@H](CC(=O)O)NC1=O` [Iw, L-tyrosinamide, glycyl-L-cysteinyl-L-glutamyl-L-threonyl-L-α-aspartyl-L-prolyl-L-arginyl-L-cysteinyl-N5-(aminocarbonyl)-L-ornithyl-L-3-iodotyrosyl-L-glutaminyl-L-lysyl-cyclic (2→8)-disulfide-cyclic-(3→12)-lactam] (H-GCETDPRC[Cit][Tyr(3-I)]QKY-NH2; disulfide 2-8; lactam 3-12), the IC50 is 36 ± 9 nM against rat α9α10 nAChR and > 300 nM at human α9α10 nAChR.

For `C[C@@H](O)[C@@H]1NC(=O)[C@@H]2CCCCNC(=O)CC[C@@H](C(=O)N[C@@H](Cc3ccc(O)cc3)C(N)=O)NC(=O)[C@H](CCC(N)=O)NC(=O)[C@H](Cc3ccc(O)c(I)c3)NC(=O)[C@H](CCCNC(N)=O)NC(=O)[C@H](CSSC[C@H](NC(=O)CN)C(=O)N2)NC(=O)[C@H](CCCNC(=N)N)NC(=O)[C@@H]2CCCN2C(=O)[C@H](CC(=O)O)NC1=O` [Ix] (H-GCKTDPRC[Cit][Tyr(3-I)]QEY-NH2; disulfide 2-8; lactam 3-12), the IC50 on rat α9α10 nAChR was 21 ± 1.4 nM; against human α9α10 nAChR, 123 ± 22 nM.
